{"source": "patent EP0183129A1", "about": "“Quinolonecarboxylic acid derivatives” (KYORIN PHARMACEUTICAL CO., LTD., priority 1984, dated 1986)", "key": {"C. difficile I-E": {"test_system": "C. difficile I-E", "assay": "In vitro antibacterial activity, MIC (standard strain)", "format": "cell-based", "settings": "Clostridioides difficile; C. difficile I-E; 10^6 cells/ml; standard strain; read-out: MIC"}, "E. coli ML4707": {"test_system": "E. coli ML4707", "assay": "In vivo antibacterial activity against systemic infection in mice", "set-up": "species or system mice (ICR-S)", "method": "Experiment-2 In vivo antibacterial activity against systemic infection in mice (ICR-S)\nThe infections were produced by intraperitoneal injection of a suspension of the bacterial culture corresponding to the germ studied. The products were administered orally at an hour after the infection."}, "[1]": {"assay": "Absorption and distribution: concentration in blood and organs after oral administration, bioassay by cup method", "format": "in vivo", "settings": "rat, rats, fasted, 10 mg/kg oral, Mean ± S.D. (n=5); for concentration at 0.5 h: 1/2 hr after administration; for concentration at 1 h: 1 hr after administration; for concentration at 2 h: 2 hr after administration; for concentration at 4 h: 4 hr after administration; for concentration at 6 h: 6 hr after administration; for concentration at 8 h: 8 hr after administration"}, "[2]": {"assay": "Urinary and bile excretion after oral administration, bioassay by cup method", "format": "in vivo", "settings": "rat, fasted rats, 10 mg/kg oral, Mean ± S.D. (n=5)"}, "[3]": {"settings": "kidney, read-out: Concentration in organs: Kidney"}, "[4]": {"settings": "liver, read-out: Concentration in organs: Liver"}, "[5]": {"settings": "lung, read-out: Concentration in organs: Lung"}, "[6]": {"settings": "serum, read-out: Concentration in organs: Serum"}}, "note": "Where a name gives a salt, the structure may show the parent alone. Read-outs that look alike come from different tables or passages of the source."}
{"compound": "CCNCC1CCN(c2c(F)cc3c(=O)c(C(=O)O)cn(C4CC4)c3c2F)C1", "note": "(stereo not drawn) [Example 2, l-Cyclopropyl-7-(3-ethylaminomethyl-l-pyrrolidinyl)-6,8-difluoro-l,4-dihydro-4-oxo-3-quinolinecarboxylic acid hydrochloride]", "values": [{"measurement": "MIC", "setting": "C. difficile I-E", "result": 0.78, "unit": "µg/mL"}, {"measurement": "ED50", "setting": "E. coli ML4707; Escherichia coli, ML4707, mice (ICR-S), oral, an hour after intraperitoneal infection, challenge dose 2.7 x 10^6 ~ 8.8 x 10^6 cfu/mouse, read-out: ED50 E. coli ML4707", "result": 0.8, "unit": "mg/kg"}, {"measurement": "activity against gram-negative bacterial infections compared with the reference compounds", "setting": "E. coli ML4707; systemic infection in mice, result in words", "result": "greater activity against gram-negative bacterial infections than the reference compounds"}, {"measurement": "concentration at 0.5 h", "setting": "[1]; [3]", "result": "8500 ± 310", "unit": "ng/g"}, {"measurement": "concentration at 1 h", "setting": "[1]; [3]", "result": "6720 ± 540", "unit": "ng/g"}, {"measurement": "concentration at 2 h", "setting": "[1]; [3]", "result": "4660 ± 300", "unit": "ng/g"}, {"measurement": "concentration at 4 h", "setting": "[1]; [3]", "result": "2620 ± 590", "unit": "ng/g"}, {"measurement": "concentration at 6 h", "setting": "[1]; [3]", "result": "1860 ± 110", "unit": "ng/g"}, {"measurement": "concentration at 8 h", "setting": "[1]; [3]", "result": "980 ± 220", "unit": "ng/g"}, {"measurement": "concentration at 0.5 h", "setting": "[1]; [4]", "result": "9480 ± 440", "unit": "ng/g"}, {"measurement": "concentration at 1 h", "setting": "[1]; [4]", "result": "6240 ± 530", "unit": "ng/g"}, {"measurement": "concentration at 2 h", "setting": "[1]; [4]", "result": "4320 ± 430", "unit": "ng/g"}, {"measurement": "concentration at 4 h", "setting": "[1]; [4]", "result": "2360 ± 480", "unit": "ng/g"}, {"measurement": "concentration at 6 h", "setting": "[1]; [4]", "result": "1620 ± 290", "unit": "ng/g"}, {"measurement": "concentration at 8 h", "setting": "[1]; [4]", "result": "820 ± 190", "unit": "ng/g"}, {"measurement": "concentration at 0.5 h", "setting": "[1]; [5]", "result": "3840 ± 420", "unit": "ng/g"}, {"measurement": "concentration at 1 h", "setting": "[1]; [5]", "result": "2940 ± 220", "unit": "ng/g"}, {"measurement": "concentration at 2 h", "setting": "[1]; [5]", "result": "1920 ± 330", "unit": "ng/g"}, {"measurement": "concentration at 4 h", "setting": "[1]; [5]", "result": "1120 ± 310", "unit": "ng/g"}, {"measurement": "concentration at 6 h", "setting": "[1]; [5]", "result": "780 ± 190", "unit": "ng/g"}, {"measurement": "concentration at 8 h", "setting": "[1]; [5]", "result": "380 ± 80", "unit": "ng/g"}, {"measurement": "concentration at 0.5 h", "setting": "[1]; [6]", "result": "1470 ± 190", "unit": "ng/mL"}, {"measurement": "concentration at 1 h", "setting": "[1]; [6]", "result": "1300 ± 200", "unit": "ng/mL"}, {"measurement": "concentration at 2 h", "setting": "[1]; [6]", "result": "900 ± 190", "unit": "ng/mL"}, {"measurement": "concentration at 4 h", "setting": "[1]; [6]", "result": "420 ± 150", "unit": "ng/mL"}, {"measurement": "concentration at 6 h", "setting": "[1]; [6]", "result": "260 ± 90", "unit": "ng/mL"}, {"measurement": "concentration at 8 h", "setting": "[1]; [6]", "result": "120 ± 40", "unit": "ng/mL"}, {"measurement": "concentration at 3 h", "setting": "[2]; bile 0 ~ 3 hr, read-out: Concentration, bile", "result": "17100 ± 10000", "unit": "ng/mL"}, {"measurement": "dose excreted at 3 h", "setting": "[2]; bile 0 ~ 3 hr, read-out: Recovery, bile", "result": "2.4 ± 1.6", "unit": "%"}, {"measurement": "dose excreted at 6 h", "setting": "[2]; bile 0 ~ 6 hr, read-out: Recovery, bile", "result": "4.3 ± 2.1", "unit": "%"}, {"measurement": "dose excreted at 24 h", "setting": "[2]; bile 0 ~ 24 hr, read-out: Recovery, bile", "result": "9.7 ± 3.1", "unit": "%"}, {"measurement": "concentration at 6 h", "setting": "[2]; bile 3 ~ 6 hr, read-out: Concentration, bile", "result": "16100 ± 6200", "unit": "ng/mL"}, {"measurement": "concentration at 24 h", "setting": "[2]; bile 6 ~ 24 hr, read-out: Concentration, bile", "result": "10100 ± 2300", "unit": "ng/mL"}, {"measurement": "concentration at 3 h", "setting": "[2]; urine 0 ~ 3 hr, read-out: Concentration, urine", "result": "44200 ± 27900", "unit": "ng/mL"}, {"measurement": "dose excreted at 3 h", "setting": "[2]; urine 0 ~ 3 hr, read-out: Recovery, urine", "result": "3.5 ± 2", "unit": "%"}, {"measurement": "dose excreted at 6 h", "setting": "[2]; urine 0 ~ 6 hr, read-out: Recovery, urine", "result": "6.7 ± 4.3", "unit": "%"}, {"measurement": "dose excreted at 24 h", "setting": "[2]; urine 0 ~ 24 hr, read-out: Recovery, urine", "result": "13.5 ± 4.6", "unit": "%"}, {"measurement": "concentration at 6 h", "setting": "[2]; urine 3 ~ 6 hr, read-out: Concentration, urine", "result": "115000 ± 61000", "unit": "ng/mL"}, {"measurement": "concentration at 24 h", "setting": "[2]; urine 6 ~ 24 hr, read-out: Concentration, urine", "result": "22100 ± 9800", "unit": "ng/mL"}]}
